# Measured values taken from patent publication US8822535B2 (priority 2005, dated 2014).
# Read-outs that look alike come from different tables or passages of the source.
# How the values were obtained:
# [1] = tested on: zebrafish (D. rerio) embryos; assay: Zebrafish embryo heart rate screening assay; type: in vivo
# Source text: These embryos are transparent, allowing one to view, using a dissecting microscope with a 4-20 times power lense, the heart beat and resultant blood flow into the main vessel along the back and into the tail. Heart rate in these animals is an indicator of the metabolic activity of the organism, such that a reduction in the heart rate signifies a reduction in metabolism. Embryos were dissected from their egg casings and distributed five per well in flat bottomed polystyrene tissue culture plates and incubated in 1 mL of standard fish water. The fishwater is composed of 1 teaspoon Instant Ocean (artificial sea water mixture, Aquarium Systems, Inc.) per 5 gallons. Calcium chloride is adjusted to 150 ppm and sodium bicarbonate to ˜100 ppm.
# [2] = tested on: mice
# Source text: Female C57BL/6J mice (Jackson Laboratories—Bar Harbor, Me.) were implanted with telemetry devices (PDT-4000 HR E-Mitter—MiniMitter Inc.—Bend, Oreg.) according to standard protocol provided by the manufacturer. Mice were allowed to recover for several weeks to permit body temperature and heart rate signals to stabilize. Core body temperature, heart rate, and movement of the mice were continuously monitored via the telemetry devices and recorded using VitalView software (provided by MiniMitter). Ambient temperature was monitored using a HOBO (Onset Computer Corp. —Pocasset, Mass.) and the data analyzed using BoxCar software (provided by Onset Computer Corp.).
# Prior to and during exposure to testing in regulated and unregulated atmospheres, the mice were placed in a gassing chamber comprising a glass cage (with drinking water and no food) fitted with import and export tubes of FEP tubing from Cole-Parmer (Vernon Hills, Ill.) for introduction and venting of the atmosphere. The cage was sealed with a lid using Dow Corning silicone vacuum grease (Sigma—St. Louis, Mo.). The gas from each cage was vented through the export tube into the chemical hood. To ensure that the system was gas-tight, a GasTech GT portable monitor was used to detect leaks.
# In some experiments, the consumption of oxygen was measured by use of a PA-10a O2 analyzer (Sable Systems) which was used according to manufacturers instructions. Similarly, the carbon dioxide being produced by the animals was monitored using a LI-7000 CO2/H2O analyzer (Li-Cor company) used according to the manufacturers instructions. These instruments were placed in line with the environmental chambers such that they sample the gas import and export tubing.
# Mice were housed in a Shel Lab low temperature diurnal illumination incubator (Sheldon Manufacturing Inc. —Cornelius, Oreg.) to regulate both temperature and light cycle (8 AM lights on, 8 PM lights off) for the mice. Mice were exposed to regulated atmosphere as described above. When the mice were exposed to the regulated atmosphere, the temperature inside the incubator was dropped to the desired temperature, for example, to 10° C. or 15° C. The mice were maintained in the regulated atmosphere and at the lowered temperature for six hours. The atmosphere in the gassing chamber was replaced with room air and the mice were returned to normal room temperature (22° C.) and allowed to recover.
# To test this hypothesis, the inventor wanted to continuously monitor both the core body temperature and the activity levels of a homeothermic animal (a mouse).
# [3] = tested on: mice; type: in vivo, mouse (C57BL6/J)
# Description: The same flow rates were used as described above (i.e., […] in a 0.5 L chamber).
# Experiments were conducted to test the ability of a mouse in a ‘hibernation-like’ state to survive in conditions where it would normally die. The adverse condition was hypoxia, which the literature states that mice (C57BL6/J males) can live in for a maximum of 20 minutes at 5% Oxygen.
# The hypoxic exposure was timed (indicated below) and viability of the mice was determined.
# [4] = tested on: rats; assay: Gas matrix: metabolic flexibility in altered gas environments, rats; type: in vivo, rat; conditions: 0.03% in room air, ambient 7 to 10° C., 6-hour treatment
# Description: (§1) Metabolic flexibility was evaluated in mice rats and dogs using altered gas environments. Three parameters were used to define this reduction in metabolism including changes in carbon dioxide production, oxygen consumption measured by respirometry, and core temperature as measured using telemetry. In experiments with mice and rats the animals were placed into sealed chambers with one gas import and one gas export. For dogs a mask was placed over the snout of the animal with two hoses (import and export) attached to the mask. The flow rate of gas for each of the animals mice—500 cc per minute, rats—2 liters per minute, and dogs 40 liters per minute. Each atmosphere was constructed from compressed gas by dilution into room air unless otherwise noted. For rat and mouse experiments the ambient temperature was 7 to 10° C. during exposure to the test gases. For dogs ambient temperature was room temperature (22° C.).
# (§2) Evidence of depression in metabolic rate of greater than 5-fold as judged by carbon dioxide production or oxygen consumption during a 6-hour treatment is described by “Yes”; […]; “N/D” denotes experiments not done. The temperature drop in the dog experiment (Carbon dioxide+low oxygen+Helium) was approximately 1.5° C. over the course of 30 minutes of exposure. This drop in temperature was considered significant because the dog was 12 kg and no such temperature drop was seen during extensive baseline recording of the animal in room air.
# [5] = tested on: dogs; assay: Gas matrix: metabolic flexibility in altered gas environments, dogs; type: in vivo, dog; conditions: 0.85% in room air, mask, room temperature (22° C.)
# Description: as §1, §2
# [6] = tested on: mice; assay: Cyanide exposure experiment in mice; type: in vivo, mouse; conditions: 80 ppm in room air at room temperature
# Description: To measure metabolic effects of HCN, mice were exposed to increasing concentrations of HCN starting at 1 ppm. Oxygen (O2) consumption, carbon dioxide (CO2) production, body core temperature (BCT) and behavior were measured or evaluated. […]. A metabolic effect is defined as a 10% change in less than 10 minutes in any of the assay values described above.
# [7] = tested on: rats
# Description: On the day of the experiment, catheters were surgically implanted into the right femoral artery and vein. Catheters exited behind scapulae. Rats were administered buprenorphine post-surgically and allowed to recover.
# The anti-coagulant drug heparin (80-100 units) was administered intravenously as a bolus to decrease the clotting ability of the blood and enhance hemorrhage. […] Catheters, temperature probe, and gas sampling tube were passed through a hole drilled in the middle of the lid. Temperature was maintained at approximately isothermal temperature (27+/−2° C.).
# The hemorrhage model was defined by the removal of 60% of total body blood over the course of a 40 minute bleed. Blood was removed using a peristaltic pump.
# Blood was removed at the calculated rate via the femoral catheter artery. Blood was weighed as it was removed.
# Metabolic rate was determined by measuring CO2 production (Licor Li7000). Temperature and CO2 data were collected (ADI PowerLab). Arterial blood values were measured (I-Stat blood chemistry analyzer). Following the bleed, animals were placed in a cage for three hours and observed. At the end of three hours, surviving rats were given lactated ringers ad libitum. For non-surviving animals, time of death was declared when animals stopped breathing and CO2 production ceased. […]
# [8] = tested on: C. elegans nematodes; conditions: in vivo
# [9] = in vivo; cited from earlier work
# [10] = 80 ppm H2S, 15 minutes, 0.5 L chamber
smiles,measurement,setting,value
"S [H2S, hydrogen sulfide]",heart rate after recovery,"[1]; 24 hours after initial exposure, solution replaced with normal fishwater after five hours",160-200 beats per minute
same,heart beats,"[1]; 48 hour old embryos, hydrogen sulfide-containing fishwater (approximately 0.1 molar), 2-3 hours following exposure",60-80 beats per minute
same,core body temperature reached repeatedly,[2]; 80 ppm,13-15 °C
same,reduction in carbon dioxide production,[2]; 80 ppm H2S (FIG. 4A),approximately 3 fold
same,drop in carbon dioxide production,[2]; [10],3-4 fold
same,drop in oxygen consumption,[2]; [10],2-3 fold
same,heart rate,"[2]; 80 ppm, 3 hrs, dropped from 600 bpm",250 bpm
same,lowest core body temperature recorded,"[2]; 80 ppm, ambient temperature dropped to less than 10° C. (FIG. 7)",10.7 °C
same,core temperature,"[2]; 80 ppm, cabinet 10° C., telemetry mouse, estimation from slope after electronics failed at 15.3° C.",approximately 12.5 °C
same,core body temperature,"[2]; 80 ppm, cabinet 10.5° C., approximately six hours",10.5 °C
same,decrease in cellular respiration,"[2]; 80 ppm, core temperature 15° C.",1-20 fold
same,breathing,"[2]; 80 ppm, core temperature dropped to 15° C.",1-10 breaths per minute
same,core temperature,"[2]; 80 ppm, incubator 18° C., 90 min",28.6 °C
same,core temperature,"[2]; 80 ppm, incubator 18° C., 3 hrs",18.6 °C
same,Consumption of oxygen,[2]; H2S (80 ppm) present,1300 ppm
same,production of carbon dioxide,[2]; H2S (80 ppm) present,750 ppm
same,RQ,"[2]; mouse, in vivo",0.58
same,behavior of the animals,"[2]; mouse, in vivo",no apparent change in the behavior
same,behavior tests (SHIRPA protocol),"[2]; mouse, in vivo",no detectable behavioral differences
same,lowest average core body temperature,"[2]; seven mice, 80 ppm, 6 hrs, ambient temperature 13° C.",15 °C
same,Time in Hypoxia,"[3]; ambient 20° C., 5 hrs in 80 ppm H2S prior, 4% oxygen, result life",28 min
same,Time in Hypoxia,"[3]; ambient 20° C., 5 hrs in 80 ppm H2S prior, 5.00% oxygen, result life",60 min
same,Time in Hypoxia,"[3]; ambient 20° C., 5 hrs in 80 ppm H2S prior, 5.20% oxygen, result life",11 min
same,Time in Hypoxia,"[3]; ambient 20° C., 5.5 hrs in 80 ppm H2S prior, 5.00% oxygen, result life",25 min
same,Time in Hypoxia,"[3]; ambient 24° C., 80 ppm H2S simultaneous with hypoxia, 5.10% oxygen, result dead",10 min
same,Time in Hypoxia,"[3]; ambient 24° C., 8 minutes in 80 ppm H2S prior, 4.00% oxygen, result dead",8 min
same,Time in Hypoxia,"[3]; ambient 24° C., 8 minutes in 80 ppm H2S prior, 4.50% oxygen, result dead",23 min
same,Time in Hypoxia,"[3]; ambient 24° C., 8 minutes in 80 ppm H2S prior, 5% oxygen, result dead",20 min
same,Time in Hypoxia,"[3]; ambient 24° C., 8 minutes in 80 ppm H2S prior, 5.00% oxygen, result life",50 min
same,Time in Hypoxia,"[3]; ambient 24° C., 10 minutes in 90 ppm H2S prior, 5% oxygen, result dead",56 min
same,Time in Hypoxia,"[3]; ambient 30° C., 8 minutes in 80 ppm H2S prior, 4.50% oxygen, result dead",6 min
same,time survived in hypoxia,"[3]; pre-equilibrated to 80 ppm H2S for 3 hours, 5.2% oxygen, still doing well 3 weeks later",11 min
same,"depression in metabolic rate, Rat",[4],Yes 0.03% (Evidence of depression in metabolic rate of greater than 5-fold as judged by carbon dioxide production or oxygen consumption during a 6-hour treatment is described by “Yes”)
same,"depression in metabolic rate, Dog",[5],No 0.85% (“No” (reduction or less than a 5-fold reduction in these values is described as such)
same,core temperature,[6],approximately 28 °C
same,survival of the hemorrhage,"[7]; 2000 ppm H2S in room air at 20 minutes of the 40 minute bleed, generally 1 to 2 minutes, 7 out of 8",88%
same,signs during exposure,"[7]; rat, in vivo",apnea and dystonia
same,lethality,[8],considerable lethality
same,progeny,[8],same number of progeny
same,LD50,[9],approximately 700 ppm
same,"adverse effects, gross and histopathological examination",[9],no observed adverse effect
same,behavioral toxicity,[9],"Significant reductions in motor activity, water maze performance and body temperature"
same,perinatal toxicity,[9],no neuropathological effects
same,tolerability,[9],innocuous
